Experimental data taken from US8859768B2, “Heteroaryls and uses thereof” (Millennium Pharmaceuticals, Inc., priority 2010, dated 2014).

Biological target: T1, Human VPS34 (Homo sapiens, UniProt Q8NEB9)
T1 construct: GST (N); host or cells: SF9 insect cells (baculovirus)
Assay: Human VPS34 Enzyme Assay (Adapta TR-FRET)
Type: biochemical
Conditions: compound at 1.111 μM; read-out: Average VPS34 % INH @ 1.111 μM
Experimental: VPS34 (accession number GB:BC033004) was cloned into pDEST20-Thombin as N-terminal GST tagged fusion proteins using the Gateway system (Invitrogen, catalog#11804-013). The sequences were verified before recombinant protein expression using the Baculovirus Expression System with Gateway® Technology.
For expression VPS34 was infected at 1MOI in SF9 cells and harvested 72 hours post infection.
For purification, VPS34 is purified by Glutathione Sepharose 4 Fast Flow (GE Healthcare #17-5132-03) followed by HiTrap Q (GE Healthcare #17-1153-01).
Human VPS34 Enzyme Assay Method
100 nL compounds in DMSO are added to wells of a 384 well microtitre plate (Greiner 780076). At room temperature: 5 ul VPS34 reaction buffer (Invitrogen Assay Buffer Q (diluted 1 in 5 with nanopure water) plus 2 mM DTT and 2 mM MnCl2) containing ATP (20 uM, Promega) and 200 uM PI-PS substrate (Invitrogen PV5122) is added followed immediately by 5 ul VPS34 reaction buffer (as above) containing VPS34 (5 nM, Millennium Protein Sciences Group) and the mixture is incubated with shaking at room temperature for 1 hour. Then 5 ul VPS34 stop-detect mix (as per Invitrogen Adapta Assay kit (PV5009) instructions (contains kinase quench buffer, TR-FRET buffer, Adapta Eu anti-ADP antibody and Alexa Fluor 647 ADP tracer)) is added to quench the reaction. The plates are then incubated for 30 minutes at room temperature with shaking and then read on a BMG PheraStar Plus reader.
3) VPS34 is assayed using Adapta™ Universal Kinase Assay Kit (Invitrogen).

T1 sequence (Q8NEB9 whole entry): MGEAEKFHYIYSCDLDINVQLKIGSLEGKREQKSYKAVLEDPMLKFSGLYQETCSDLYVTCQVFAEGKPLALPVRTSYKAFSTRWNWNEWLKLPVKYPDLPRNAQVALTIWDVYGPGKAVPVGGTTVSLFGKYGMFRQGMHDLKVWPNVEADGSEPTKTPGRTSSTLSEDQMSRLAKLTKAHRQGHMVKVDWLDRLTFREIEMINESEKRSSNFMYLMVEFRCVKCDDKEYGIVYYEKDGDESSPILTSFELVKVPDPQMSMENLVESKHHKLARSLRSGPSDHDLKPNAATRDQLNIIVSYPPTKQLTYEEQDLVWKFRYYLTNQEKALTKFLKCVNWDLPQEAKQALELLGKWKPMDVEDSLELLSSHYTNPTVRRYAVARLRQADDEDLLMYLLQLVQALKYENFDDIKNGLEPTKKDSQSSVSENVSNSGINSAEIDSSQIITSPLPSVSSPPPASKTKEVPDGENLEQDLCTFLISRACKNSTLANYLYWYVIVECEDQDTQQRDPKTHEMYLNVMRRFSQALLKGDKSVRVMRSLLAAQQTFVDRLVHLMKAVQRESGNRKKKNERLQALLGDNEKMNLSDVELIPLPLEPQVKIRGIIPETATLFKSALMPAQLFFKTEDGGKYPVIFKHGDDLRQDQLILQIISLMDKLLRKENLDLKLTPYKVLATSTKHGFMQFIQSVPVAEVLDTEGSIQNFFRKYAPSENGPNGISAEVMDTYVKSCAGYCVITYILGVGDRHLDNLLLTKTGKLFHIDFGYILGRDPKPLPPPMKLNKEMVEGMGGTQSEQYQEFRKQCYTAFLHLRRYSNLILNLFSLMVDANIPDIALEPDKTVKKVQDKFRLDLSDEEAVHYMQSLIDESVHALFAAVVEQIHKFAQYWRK

Compound | inhibition at 1.111 µM
CCCC(=O)Nc1cc(-c2nc(-c3nnc[nH]3)c(-c3ccccc3Cl)o2)ccn1 [Compound I-76, N-{4-[5-(2-chlorophenyl)-4-(4H-1,2,4-triazol-3-yl)-1,3-oxazol-2-yl]pyridin-2-yl}butanamide] | 79%
COC(=O)Nc1cc(-c2nc(-c3nnc[nH]3)c(-c3ccccc3Cl)o2)c(C)cn1 [Compound I-35, methyl {4-[5-(2-chlorophenyl)-4-(4H-1,2,4-triazol-3-yl)-1,3-oxazol-2-yl]-5-methylpyridin-2-yl}carbamate] | 117%
CC(=O)Nc1cc(-c2nc(N3CCCC(N(C)C)C3)c(-c3nnc[nH]3)o2)c(C)cn1 (centres unmarked) [Compound I-79, N-(4-{4-[3-(dimethylamino)piperidin-1-yl]-5-(4H-1,2,4-triazol-3-yl)-1,3-oxazol-2-yl}-5-methylpyridin-2-yl)acetamide] | 82%
CC(=O)Nc1cc(-c2nc(C(=O)NCc3cccs3)c(-c3ccccc3Cl)o2)c(C)cn1 [Compound I-38, 2-(2-acetamido-5-methylpyridin-4-yl)-5-(2-chlorophenyl)-N-(2-thienylmethyl)-1,3-oxazole-4-carboxamide] | 43%
CC(=O)Nc1cc(-c2nc(C(=O)O)c(-c3ccccc3Cl)o2)c(C)cn1 [Compound I-6, 2-[2-(acetylamino)-5-methylpyridin-4-yl]-5-(2-chlorophenyl)-1,3-oxazole-4-carboxylic acid] | 99%
CC(=O)Nc1cc(-c2nc(C(=O)NCCC(C)C)c(-c3ccccc3Cl)o2)c(C)cn1 [Compound I-11, 2-(2-acetamido-5-methylpyridin-4-yl)-5-(2-chlorophenyl)-N-(3-methylbutyl)-1,3-oxazole-4-carboxamide] | 22%
CC(=O)Nc1cc(-c2nc(-c3ccccc3Cl)c(-c3ncco3)o2)c(C)cn1 [Compound I-33, N-{4-[4′-(2-chlorophenyl)-2,5′-bi-1,3-oxazol-2′-yl]-5-methylpyridin-2-yl}acetamide] | 102%
CC(=O)Nc1cc(-c2cc(C(=O)N(C)C)c(-c3ccccc3Cl)o2)c(C)cn1 [Compound I-61, 5-(2-acetamido-5-methylpyridin-4-yl)-2-(2-chlorophenyl)-N,N-dimethyl-3-furamide] | 96%
CC(=O)Nc1cc(-c2cc(C(=O)NCc3ccccc3)c(-c3ccccc3Cl)o2)c(C)cn1 [Compound I-53, 5-(2-acetamido-5-methylpyridin-4-yl)-N-benzyl-2-(2-chlorophenyl)-3-furamide] | 104%
CC(=O)Nc1cc(-c2cc(C(=O)NCCCn3ccnc3)c(-c3ccccc3Cl)o2)c(C)cn1 [Compound I-24, 5-(2-acetamido-5-methylpyridin-4-yl)-2-(2-chlorophenyl)-N-[3-(1H-imidazol-1-yl)propyl]-3-furamide] | 102%
CC(=O)Nc1ccc(-c2nc(-c3nnc[nH]3)c(-c3ccccc3Cl)o2)cc1 [Compound I-8, N-{4-[5-(2-chlorophenyl)-4-(4H-1,2,4-triazol-3-yl)-1,3-oxazol-2-yl]phenyl}acetamide] | 7%
CC(=O)Nc1cc(-c2nc(C(=O)Nc3cnccn3)c(-c3ccccc3Cl)o2)c(C)cn1 [Compound I-31, 2-(2-acetamido-5-methylpyridin-4-yl)-5-(2-chlorophenyl)-N-(pyrazin-2-yl)-1,3-oxazole-4-carboxamide] | 56%
COCCC(=O)Nc1cc(-c2nc(-c3nnc[nH]3)c(-c3ccccc3Cl)o2)ccn1 [Compound I-45, N-{4-[5-(2-chlorophenyl)-4-(4H-1,2,4-triazol-3-yl)-1,3-oxazol-2-yl]pyridin-2-yl}-3-methoxypropanamide] | 104%
CC(=O)Nc1cc(-c2cc(C(=O)NCc3ccco3)c(-c3ccccc3Cl)o2)c(C)cn1 [Compound I-88, 5-(2-acetamido-5-methylpyridin-4-yl)-2-(2-chlorophenyl)-N-(2-furylmethyl)-3-furamide] | 114%
